According to patent US20090054376A1, “BENZOFURAN DERIVATIVES WITH THERAPEUTIC ACTIVITIES” (Pharmos Corporation, priority 2005, published 2009):

Key:
[1] = tested on: TNBS induced inflammatory bowel disease; test: TNBS induced inflammatory bowel disease; assay type: in vivo, Female Balb/C mice; conditions: 20 mg/kg i.p. daily
Protocol: Female Balb/C mice (average body weight 20 g, Harlan, Israel) were lightly sedated and challenged rectally, by instillation with 70 μl of 2.5% TNBS (Sigma) dissolved in 50% ethanol, to induce intestinal inflammation and colitis. Animals were weighted before the beginning of the study and treatment was administered i.p. on a daily basis for six days at 20 mg/kg and volume dosage of 5 ml/kg. During the study period of up to 7 days, the following parameters were daily monitored and recorded: body weight, presence of blood in the stool and stool consistency. These findings are scored according to Table 6 [Murthy S.N. et al., Dig. Dis. Sci. 38:1722-34, 1993].
On the last day of the study, animals were euthanized. Abdomen was open and the colon was sectioned at the level of the caecum and the rectum. The colon was weighted and its length was measured. The whole column was excised, slited longitudinally, and examined under a magnifying lens. Any visible damage was recorded and scored for gross pathology according to Wong [Wong et al., J. Pharm. Exp. Ther. 274: 475-80, 1995]. Namely, a score of 0 indicates no damage, 1 indicates localized hyperemia and/or edema, 2 indicates at least two sites of hyperemia and/or edema, 3 indicates localized erosion, 4 indicates localized ulcer and 5 indicates either an erosion site or ulcer extending for more than 2 cm along the colon or at least two sites of erosion or ulcer. Finally, the entire colon was fixed in 4% formaldehyde for histopathological evaluation.
Each treatment group comprised at least seven animals. The following groups served as negative controls: naïve animals, sham animals that received 70 μl of 50% ethanol without TNBS, and TNBS challenged untreated and vehicle treated animals. A group of animals receiving 10 mg/kg sulfasalazine served as positive controls. Sulfasalazine is a standard anti-inflammatory drug used for the treatment of mild to moderate ulcerative colitis and Crohn's disease, and as adjunctive therapy in the treatment of severe ulcerative colitis. This drug is also used for the treatment of non-IBD related disorders, such as rheumatoid arthritis and ankylosing spondylitis. The recognized side effect of this medicament is its hepatotoxicity upon chronic treatment.

Human CB1 Receptor = target: T1, Human CB1 Receptor (Homo sapiens, UniProt P21554); test: [35S]GTPγS-binding assay, hCB1; assay type: biochemical; conditions: NB = no binding
T1 construct: expressed in transfected cells; host or cells: HEK-293 cells (membranes)

[2] = tested on: visceral pain writhing responses; test: Tolerance: repeated administration in the model of Visceral Pain; assay type: in vivo, mice; conditions: tested day 11 at 2 mg/kg i.v.
Protocol: Male ICR mice (average body weight 25 g, Harlan, Israel) were pretreated by i.v. injection at volume dose of 5 ml/kg of vehicle, control and test compounds at various doses. Other routes of administration were tested for selected compounds including i.m. or s.c. injections at volume dose of 2.5 ml/kg and p.o. gavage at volume dose of 5 ml/kg. Compounds were dissolved in CREMOPHOR®:Ethanol and diluted 1:20 in saline prior to injection or gavage. Compounds administered i.v. were injected fifteen minutes before pain induction, whereas compounds administered i.m., s.c. or p.o. were supplied thirty minutes before pain induction, unless otherwise indicated. Each treatment group, except for controls comprising at least 30 animals, was composed of at least 6 animals. Fifteen or thirty minutes after drug administration, depending on the route of administration, the mice were injected i.p. with 10 ml/kg of 0.6% acetic acid and the number of visceral pain related behaviors (writhing movements globally defined as WR, i.e. stretching, contractions of the abdomen accompanied by an elongation of the body and extension of the hind limbs) was counted over a period of 5 minutes, starting 5 minutes after the acetic acid administration. These visceral pain related behaviors were globally defined as writhing responses (WR). The results are expressed as mean number of writhing responses ±SEM. Data were analyzed using analysis of variance (ANOVA) followed by post-hoc Fisher test.
Briefly compounds of the invention were administered at 10 mg/kg i.p. daily for 10 days and their analgesic activity was tested on day 11 as described in Example 17 (namely at 2 mg/kg i.v.). […] Each treatment group comprised 10 animals.

T1 sequence (P21554 whole entry): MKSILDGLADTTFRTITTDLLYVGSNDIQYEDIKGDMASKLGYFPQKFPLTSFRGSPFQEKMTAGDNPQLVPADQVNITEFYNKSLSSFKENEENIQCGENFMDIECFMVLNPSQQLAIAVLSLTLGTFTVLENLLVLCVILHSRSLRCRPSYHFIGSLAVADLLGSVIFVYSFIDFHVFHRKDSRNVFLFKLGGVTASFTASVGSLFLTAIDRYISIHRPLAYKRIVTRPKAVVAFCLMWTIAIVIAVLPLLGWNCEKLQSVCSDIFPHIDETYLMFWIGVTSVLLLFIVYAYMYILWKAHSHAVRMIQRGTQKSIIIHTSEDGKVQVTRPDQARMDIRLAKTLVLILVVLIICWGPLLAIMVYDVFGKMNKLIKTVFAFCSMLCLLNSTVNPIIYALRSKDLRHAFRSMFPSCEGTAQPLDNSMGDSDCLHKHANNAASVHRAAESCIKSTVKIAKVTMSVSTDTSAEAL

SMILES	regained normal weight after [1]	transient loss in body weight ([1]; one day after TNBS instillation)	mortality ([1]; untreated 60%) [%]	EC50 (Human CB1 Receptor) [nM]	Emax (Human CB1 Receptor; upper plateau of curve) [%]	writhing responses on day 11 ([2]; repeated administration daily for 10 days (10 mg/kg i.p.), vehicle 29.75±1.09)	reduction in pain response after repeated administration ([2]; repeated administration daily for 10 days) [%]
CCCCC(C)(C)c1cc(O)c2c(c1)OC1CCCCC21 (stereo not shown) [Compound C6S-3, 3-(1,1-dimethylpentyl)-5a,6,7,8,9,9a-hexahydro-dibenzofuran-1-ol]	4 days of treatment	about 5%	7				
CCCCCCC(C)(C)c1cc(O)c2c(c1)OC1C(O)CCCCC21 (stereo not drawn) [Compound C7S-2, 2-(1,1-dimethylheptyl)-5,6,7,8,9,9a-hexahydro-4bH-10-oxa-benzo[α]azulen-4,9-diol]				359	50	2.45±1.49	92
